Results on 13 compounds are retold here after ChEMBL document CHEMBL4616668, “Discovery of a High Affinity, Orally Bioavailable Macrocyclic FXIa Inhibitor with Antithrombotic Activity in Preclinical Species” (J Med Chem, 2020).

A short description of series [1]: Half life in dog liver microsomes. The class given is ADME, Canis lupus familiaris, Microsome.
Another series has as its target Coagulation factor XI (Homo sapiens, UniProt P03951). Nature of the series: Inhibition of human factor11a using pyro-Glu-Pro-Arg-pNA(para-nitroaniline) substrate by spectrophotometry.
Series [2] has as its system Plasma. Nature of the series: Anticoagulant activity in human plasma assessed as activated partial thromboplastin time. It counts as functional.
The nature of series [3]: Half life in rat liver microsomes. It counts as ADME, Microsome.
Series [4] can be described thus: Half life in cynomolgus monkey liver microsomes. It counts as ADME, Macaca fascicularis, Microsome. Background: Liver microsomes are vesicles of endoplasmic reticulum, rich in cytochrome P450 enzymes.
A short description of series [5]: Half life in human liver microsomes. It counts as ADME, Microsome.
Series [6] can be described thus: Clearance in Sprague-Dawley rat at 0.6 mg/kg, iv. Particulars: in vivo. It counts as ADME, organism-based.
Series [7] in a line: Oral bioavailability in Sprague-Dawley rat at […]. Particulars: in vivo. It counts as ADME, organism-based.
Series [8] is described as follows: Oral bioavailability in cynomolgus monkey at 1.5 mg/kg. It counts as ADME, organism-based, Macaca fascicularis. Particulars: in vivo.
Series [9] can be described thus: Terminal half life in Sprague-Dawley rat at 0.6 mg/kg, iv. It counts as ADME, organism-based. The following applies: in vivo, read-out: beta t1/2 (converted).
Series [10] can be described thus: Oral bioavailability in Beagle dog at 1.1 mg/kg. It counts as ADME, organism-based, Canis lupus familiaris. Particulars: in vivo.
Series [11] can be described thus: AUC in Sprague-Dawley rat at 0.6 mg/kg, iv. The class given is ADME, organism-based. Particulars: in vivo.
Series [12] in a line: Terminal half life in cynomolgus monkey at 0.5 mg/kg, iv. The class given is ADME, organism-based, Macaca fascicularis. The following applies: in vivo, read-out: beta t1/2 (converted).
Series [13] can be described thus: Terminal half life in Beagle dog at 0.4 mg/kg, iv. It counts as ADME, organism-based, Canis lupus familiaris. The following applies: in vivo, read-out: beta t1/2 (converted).
Series [14] in a line: AUC in Beagle dog at 0.4 mg/kg, iv. It counts as ADME, organism-based, Canis lupus familiaris. The following applies: in vivo.
Series [15] can be described thus: AUC in cynomolgus monkey at 1.5 mg/kg, po. Particulars: in vivo. The class given is ADME, organism-based, Macaca fascicularis.
Series [16] is described as follows: Permeability form apical to basolateral side in human Caco2 cells. The class given is ADME, cell-based. Particulars: Caco-2, read-out: permeability. (In general: Passage across Caco-2 layers is used to estimate intestinal permeability.)
Series [17] can be described thus: AUC in Beagle dog at 1.1 mg/kg, po. The class given is ADME, organism-based, Canis lupus familiaris. The following applies: in vivo.
Series [18] can be described thus: Permeability form basolateral to apical side in human Caco2 cells. It counts as ADME, cell-based. The following applies: Caco-2, read-out: permeability.
Series [19] is described as follows: Clearance in Beagle dog at 0.4 mg/kg, iv. The following applies: in vivo. It counts as ADME, organism-based, Canis lupus familiaris.
Series [20] can be described thus: Apparent volume of distribution at steady-state in Beagle dog at 0.4 mg/kg, iv. The class given is ADME, organism-based, Canis lupus familiaris. Particulars: in vivo, read-out: Vdss(app).
The nature of series [21]: Apparent volume of distribution at steady-state in Sprague-Dawley rat at 0.6 mg/kg, iv. It counts as ADME, organism-based. Particulars: in vivo, read-out: Vdss(app).
Series [22] in a line: Clearance in cynomolgus monkey at 0.5 mg/kg, iv. The class given is ADME, organism-based, Macaca fascicularis. Particulars: in vivo.
The nature of series [23]: Apparent volume of distribution at steady-state in cynomolgus monkey at 0.5 mg/kg, iv. The class given is ADME, organism-based, Macaca fascicularis. The following applies: in vivo, read-out: Vdss(app).
Series [24] is described as follows: AUC in cynomolgus monkey at 0.5 mg/kg, iv. The class given is ADME, organism-based, Macaca fascicularis. Particulars: in vivo.
Series [25] in a line: AUC in Sprague-Dawley rat at […], po. The class given is ADME, organism-based. The following applies: in vivo.
Series [26] deals with Plasma. Nature of the series: Anticoagulant activity in rabbit plasma assessed as activated partial thromboplastin time. It counts as functional, Oryctolagus cuniculus.
Series [27] can be described thus: Toxicity in New Zealand White rabbit model of cuticle bleeding time assessed as increase in cuticle bleeding time at 4 mg/kg/hr dosed as continuous intravenous infusion 30 to 60 mins prior to cuticle transection relative to control. The class given is organism-based, Oryctolagus cuniculus. Particulars: in vivo.

SMILES strings stand for the structures.

Chain of Coagulation factor XI (P03951 19-387 limits assumed): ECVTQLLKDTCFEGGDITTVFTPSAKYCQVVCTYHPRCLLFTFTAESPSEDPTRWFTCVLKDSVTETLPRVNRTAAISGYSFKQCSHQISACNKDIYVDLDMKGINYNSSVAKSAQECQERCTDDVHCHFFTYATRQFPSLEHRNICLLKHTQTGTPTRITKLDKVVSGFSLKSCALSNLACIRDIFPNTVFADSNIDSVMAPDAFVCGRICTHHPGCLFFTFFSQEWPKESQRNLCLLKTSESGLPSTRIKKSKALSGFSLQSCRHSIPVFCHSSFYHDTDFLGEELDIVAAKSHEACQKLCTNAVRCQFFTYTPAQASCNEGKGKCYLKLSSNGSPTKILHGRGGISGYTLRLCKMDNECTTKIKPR
Chain of Coagulation factor XI (P03951 388-625 limits assumed): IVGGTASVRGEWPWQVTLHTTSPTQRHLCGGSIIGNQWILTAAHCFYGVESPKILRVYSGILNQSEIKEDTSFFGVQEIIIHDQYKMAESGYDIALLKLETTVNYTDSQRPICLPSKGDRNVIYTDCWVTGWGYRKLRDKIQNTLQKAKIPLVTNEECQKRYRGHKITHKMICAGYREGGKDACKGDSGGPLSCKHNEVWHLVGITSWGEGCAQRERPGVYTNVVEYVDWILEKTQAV

Broadly, the Ki is the equilibrium dissociation constant of an inhibitor or competing ligand from its target. As to `COC(=O)Nc1ccc2c(c1)NC(=O)[C@H](C)CCC[C@H](N1CCN(c3c(F)ccc(Cl)c3F)CC1=O)c1cc-2ccn1`, the half-life came to 6 min in [1], 9 min in series [3], 1 min in series [4] and 4 min in [5]. Further, the affinity at Coagulation factor XI corresponds to a Ki of 4.5 nM. Also, the EC1.5 with Plasma [2] was determined as 4.6 µM.

Take `COC(=O)Nc1ccc2c(c1)NC(=O)[C@H](C)CCC[C@H](N1CC(=O)N(c3c(F)ccc(Cl)c3F)CC1=O)c1cc-2ccn1`: the half-life in series [1] turned out to be 72 min; in series [3], 55 min; in series [4], 27 min; in series [5], 75 min. In addition, on Coagulation factor XI, the affinity, expressed as Ki, was 4.9 nM. For the same compound, the EC1.5 in the series on Plasma [2] stood at 1.4 µM.

For orientation: clearance means the rate of elimination divided by the concentration. Usually bioavailability stands for dose-corrected exposure relative to a reference, in per cent. In the case of `COC(=O)Nc1ccc2c(c1)NC(=O)[C@H](C)CCC[C@H](N1CC[C@H](c3c(F)ccc(Cl)c3F)OC1=O)c1ccnc-2c1`, the half-life in [1] is 44 min; in series [3], 29 min; in [4] it was 9 min; in series [5] it was 36 min. The same compound had a Ki at Coagulation factor XI of 1.6 nM. For the same compound, the EC1.5 in the series on Plasma [2] is 0.5 µM. This compound also gave a clearance in series [6] of 33 mL/min/kg. In addition, the bioavailability in [7] was determined as 48%.

As for `COC(=O)Nc1ccc2c(c1)NC(=O)[C@H](C)CCC[C@H](N1CCC(c3c(F)ccc(Cl)c3F)=CC1=O)c1cc-2ccn1`, the EC1.5 in the series with Plasma [2] amounted to 1.8 µM.

Consider `COC(=O)Nc1ccc2c(c1)NC(=O)[C@H](C)CCC[C@H](N1CC[C@H](c3c(F)ccc(Cl)c3F)OC1=O)c1cncc-2c1`, for which the half-life was 21 min in [1], 9 min in series [3], 2 min in [4] and 17 min in series [5]. Also, the affinity at Coagulation factor XI corresponds to a Ki of 1.8 nM. In addition, in the series on Plasma [2], the EC1.5 is 0.6 µM.

Consider `COC(=O)Nc1ccc2c(c1)NC(=O)[C@H](C)CCC[C@H](N1CC[C@H](c3c(F)ccc(Cl)c3F)OC1=O)c1cc-2cnc1F`, for which the half-life was 15 min in series [1], 6 min in [3] and 9 min in [5]. Moreover, the affinity on Coagulation factor XI corresponds to a Ki of 2.7 nM. Also, the EC1.5 in the series with Plasma [2] came out at 1.2 µM.

Turning to `COC(=O)Nc1ccc2c(c1)NC(=O)[C@H](C)CCC[C@H](N1CCN(c3c(F)ccc(Cl)c3F)C(=O)C1=O)c1cc-2ccn1`, the half-life was determined as 64 min in series [1], 60 min in [3], 80 min in [4] and 76 min in series [5]. On Coagulation factor XI, this compound yielded an inhibitory constant (Ki) of 14 nM. For the same compound, the EC1.5 in the series with Plasma [2] came out at 4.3 µM.

In general, AUC refers to concentration integrated over time. Consider `COC(=O)Nc1ccc2c(c1)NC(=O)[C@H](C)CCC[C@H](N1CC[C@H](c3c(F)ccc(Cl)c3F)OC1=O)c1ncc-2[nH]1`, for which the half-life was 38 min in series [1]; 84 min in [9]; 84 min in [12]; 114 min in [13]; 48 min in [3]; 17 min in series [4]. The compound also displayed a half-life in series [5] of 55 min. The bioavailability came to 29% in [8], 57% in series [10] and 54% in series [7]. Moreover, at Coagulation factor XI, the affinity corresponds to a Ki of 0.7 nM. For the same compound, the AUC amounted to 0.52 µM·h in series [11]; 0.285 µM·h in series [14]; 0.263 µM·h in series [15]; 0.446 µM·h in [17]; 0.233 µM·h in series [24]; 0.687 µM·h in series [25]. Moreover, in the series on Plasma [2], the EC1.5 stood at 0.6 µM. Besides, in series [16], the Papp A→B was 3.8 ×10⁻⁶ cm/s. For the same compound, the Papp B→A in series [18] was 23.8 ×10⁻⁶ cm/s. Moreover, the clearance was determined as 38 mL/min/kg in series [19], 33 mL/min/kg in series [6] and 56 mL/min/kg in [22]. The Vd in [20] is 5.1 L/kg; in series [21], 3.2 L/kg; in series [23] it was 9.2 L/kg.

As for `COC(=O)Nc1ccc2c(c1)NC(=O)[C@H](C)CCC[C@H](N1CCC(c3c(F)ccc(Cl)c3F)NC1=O)c1cc-2ccn1` (stereo partly specified), the half-life was found to be 27 min in series [1], 40 min in series [3], 2 min in series [4] and 17 min in series [5]. On Coagulation factor XI, this compound gave an inhibition constant Ki of 0.5 nM. Further, in the series on Plasma [2], the EC1.5 was found to be 7.5 µM.

On to `COC(=O)Nc1ccc2c(c1)NC(=O)[C@H](C)CCC[C@H](N1CC[C@H](c3c(F)ccc(Cl)c3F)OC1=O)c1cc-2ccn1`, for which the half-life in series [1] came to 27 min; in series [3] it was 35 min; in series [4], 12 min; in series [5] it was 56 min. The same compound came in with an inhibition constant (Ki) on Coagulation factor XI of 0.6 nM. Besides, the EC1.5 with Plasma [2] was found to be 0.5 µM. In series [6], the clearance was 23 mL/min/kg. For the same compound, the bioavailability in series [7] is 37%.

As for `COC(=O)Nc1ccc2c(c1)NC(=O)[C@H](C)CCC[C@H](N1CCC(c3c(F)ccc(Cl)c3F)=CC1=O)c1cc-2ccn1.O=C(O)C(F)(F)F`, the EC1.5 in the series with Plasma [26] was found to be 26 µM.

Consider `COC(=O)Nc1ccc2c(c1)NC(=O)[C@H](C)CCC[C@H](N1CCC(c3c(F)ccc(Cl)c3F)CC1=O)c1cc-2ccn1` (mixture of isomers), for which the half-life stood at 13 min in series [1], 15 min in series [3], 3 min in [4] and 8 min in [5]. On Coagulation factor XI, this compound came in with an inhibition constant Ki of 0.9 nM. Also, in the series with Plasma [2], the EC1.5 is 2.8 µM.

For `CC(=O)Oc1ccccc1C(=O)O` [ASPIRIN], in [27], the “fold change (FC)” value was determined as 2.3.
